# Source: PubChem BioAssay (NCI)
# Where “and” joins values, the source holds several entries; their conditions need not be identical. Equal values may be shown once.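 Step 1: Grow cells in 96-well plates. Step 2: Expose to compound for 48 hours at 5 concentrations. Step 3: Interpolate endpoints linearly; if unreached, use highest concentration. GI50 = concentration required for 50% inhibition of growth. The concentration for full growth arrest is given as TGI.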
# Legend:
# Assay in all cases: NCI-60 cell line screen, 48 h
# [1] = tested on: KM12 colon
# [2] = tested on: HCT-116 colon
# [3] = tested on: BT-549 breast
# [4] = tested on: OVCAR-4 ovarian
# [5] = tested on: CAKI-1 renal
# [6] = tested on: M14 melanoma
# [7] = tested on: MDA-MB-231 breast
# [8] = tested on: SF-539 CNS
# [9] = tested on: TK-10 renal
# [10] = tested on: MALME-3M melanoma
# [11] = tested on: SK-MEL-2 melanoma
# [12] = tested on: SN12C renal
# [13] = tested on: A549 NSCLC
# [14] = tested on: RPMI-8226 leukemia
# [15] = tested on: IGROV1 ovarian
# [16] = tested on: RXF 393 renal
# [17] = tested on: COLO 205 colon
# [18] = tested on: HS 578T breast
# [19] = tested on: HT29 colon
# [20] = tested on: SW-620 colon
# [21] = tested on: DU-145 prostate
# [22] = tested on: PC-3 prostate
# [23] = tested on: SK-OV-3 ovarian
# [24] = tested on: SK-MEL-5 melanoma
# [25] = tested on: UACC-62 melanoma
# [26] = tested on: HCT-15 colon
# [27] = tested on: HOP-92 NSCLC
# [28] = tested on: SF-268 CNS
# [29] = tested on: SNB-19 CNS
smiles,measurement,setting,value
CC(C)C[C@H](NC(=O)[C@@H](NC(=O)c1cccc(-c2ccccc2)n1)[C@@H](C)O)B(O)O,TGI,[1],67.2 nM and 22 nM
same,GI50,[2],3.44 nM
same,TGI,[2],14.2 nM and 12.7 nM
same,GI50,[3],4.7 nM
same,GI50,[4],12.4 nM and 18.5 nM
same,TGI,[4],79000 nM
same,GI50,[5],14.6 nM and < 17.4 nM
same,TGI,[6],20.7 nM
same,GI50,[7],4.85 nM and 19.1 nM
same,GI50,[8],2.64 nM
same,TGI,[8],6.84 nM and < 11.4 nM
same,GI50,[9],3.52 nM
same,TGI,[9],59.2 nM and < 27.3 nM
same,GI50,[10],2.97 nM
same,TGI,[10],8.38 nM and < 19.6 nM
same,GI50,[11],3.87 nM
same,TGI,[11],18.7 nM and < 19.5 nM
same,GI50,[12],15.1 nM and 19.3 nM
same,TGI,[12],413 nM
same,GI50,[13],17.3 nM and 18.8 nM
same,TGI,[13],8580 nM
same,TGI,[14],< 10.8 nM
same,GI50,[15],25.6 nM and 22.9 nM
same,TGI,[15],171 nM
same,GI50,[16],4.14 nM
same,TGI,[16],15.1 nM and < 11.9 nM
same,GI50,[17],8.13 nM and < 12.6 nM
same,TGI,[17],3300 nM
same,GI50,[18],4.04 nM and < 10.7 nM
same,TGI,[18],> 100000 nM
same,GI50,[19],3.96 nM
same,TGI,[19],23.3 nM and 46 nM
same,GI50,[20],4.11 nM
same,TGI,[20],2340 nM
same,GI50,[21],7.7 nM
same,TGI,[21],1810 nM
same,GI50,[22],23.6 nM
same,TGI,[22],1940 nM
same,GI50,[23],47.4 nM and 32.5 nM
same,TGI,[23],7820 nM
same,GI50,[24],4.21 nM
same,TGI,[24],17.7 nM and < 11.4 nM
same,GI50,[25],5.58 nM and < 11.1 nM
same,TGI,[25],31.1 nM and 41.2 nM
same,GI50,[26],17.6 nM and < 18.2 nM
same,TGI,[26],107 nM
same,GI50,[27],20.9 nM
same,TGI,[27],119 nM
same,GI50,[28],9.52 nM and 12 nM
same,TGI,[28],43.6 nM
same,GI50,[29],616 nM and 106 nM
same,TGI,[29],> 52400 nM
